From a melting point compilation (Tetko et al.; mined from patent text by program, amines drawn as free bases though some values may be those of a salt)
Non-standard residues stand in square brackets, D forms with d. Residues, ends and D or L forms follow the SMILES beside them. *: point of attachment. Tos = Cc1ccc(S(=O)(=O)*)cc1; Sar = CNCC(=O)O

Compound	melting point
CCN1C(Cl)=NC(C)=NS1(=O)=O	57 to 59 °C
COc1ccc(-c2nc(SC)ncc2-c2ccc(Cl)cc2)cc1	127 to 130 °C
O=C(c1ccc(Nc2ncnc3ccccc23)cc1)N1CCN(c2ncc(Cc3ccccc3)cn2)CC1	245 to 247 °C
CN(C)C=Nc1c(Cl)cc(NCc2ccc(N(C)C)cc2Br)cc1Cl	135 to 137 °C
Cc1cc(C)cc(NS(=O)(=O)c2ccc(N3CCNC3=O)cc2)c1	216 to 218 °C
N#Cc1ccc(NC2=C(Cl)C(=O)c3ccccc3C2=O)cc1	188 to 189 °C
O=C1NS(=O)Oc2ccccc21 (stereo not drawn)	180 to 182 °C
O=CC(=Cc1ccccc1)c1ccc(F)cc1	87 to 94 °C
CC1(C)OC(C=Cc2ccc(C#N)cc2)=CC1=O	170 °C
COc1nc2ncccc2c2nc(S(=O)(=O)Nc3c(Cl)cccc3Cl)nn12	290 to 293 °C
CCOC(=O)C(NC(C)=O)(C(=O)OCC)C1=Nc2ccc(Cl)cc2C(c2ccccc2Cl)=NC1	153 to 155 °C
CN(CCO)c1nccc(NC(N)=NCC(F)(F)F)n1	158 to 160 °C
FC(F)(F)c1cccc(Nc2nc(NCc3ccco3)nc(OCc3ccncc3)n2)c1	124 to 126 °C
Cc1ccc(NS(=O)(=O)c2cccc(C#N)c2)c2[nH]cc(C#N)c12	220 to 221 °C
CCCN(CCC)C1CCC2=C(CCCC2=NO)C1 (stereo not drawn)	99 to 102 °C
O=C(N[C@H]1CC[C@H](CCN2CCC(c3cccc4c3CCO4)CC2)CC1)c1ccc(Cl)cc1	224 °C
CN1C(=O)C(NC(=O)Nc2cccc3ccccc23)N=C(c2ccccc2)c2ccccc21 (stereo not drawn)	234 to 235 °C
CON=C(c1ncon1)c1ccccc1COc1ccc(Cl)cc1	107 to 108 °C
Cc1cc(OC(F)F)c([N+](=O)[O-])cc1S(=O)(=O)N(C)C	125 to 126 °C
COc1ccc([C@@H]2C[C@H]2CNC(=O)N(C)O)cc1 (relative stereo)	112 °C

Compound	melting point
N=C(N)Nc1nnc(-c2ccc([N+](=O)[O-])cc2)s1	295 to 297 °C
C=CCC(O)(C(=O)c1ccc(C)cc1)c1ccc(C)cc1 (stereo not drawn)	38 to 40 °C
CN(CCNc1ccc2c3c(nn2CCN)-c2c(OCc4ccccc4)ccc(OCc4ccccc4)c2C(=O)c13)Cc1ccccc1	169 to 172 °C
O=C(c1ccccc1)c1cnn2cccnc12	174 to 175 °C
COc1ccc2c(c1)CCC1(C)CC(=O)NN=C21 (stereo not drawn)	215 °C
Cc1nnc2n1-c1sc3c(c1C(c1ccccc1Cl)=NC2)CCN(C(=S)NCc1ccccc1C(F)(F)F)C3	178 to 184 °C
O=C1N(c2ccc(Cl)cc2Cl)Cc2cnc(Nc3ccccc3)nc2N1c1cccc(CCN2CCOCC2)c1	118 °C
CCCCCCCCc1ccc(C#Cc2c3ccccc3c(C#Cc3ccc(CCCCCCCC)cc3)c3ccccc23)cc1	131 to 133 °C
O=C(OCCCc1nc(-c2ccc(Cl)cc2)co1)c1ccccc1	47 to 47.5 °C
O=C1C(=O)N(CCCCN2CCN(C(c3ccccc3)c3ccccc3)CC2)c2ccccc21	127 to 129 °C
O=C(C1CCCc2c1c1ccccc1n2Cc1ccccc1)N1CCCCC1 (stereo not drawn)	249 to 252 °C
C[C@H](OC(c1ccccc1)(c1ccccc1)c1ccccc1)C(=O)O	100 to 106 °C
CCN(CC)S(=O)(=O)c1cc(Cl)c(Cl)c(Cl)c1SCSC#N	83 to 85 °C
c1ccc(C(Sc2nnn[nH]2)c2ccccc2)cc1	132 to 134 °C
N#Cc1nn(-c2c(Cl)cc(SC(F)(F)F)cc2Cl)c(N)c1I	172 to 174 °C
Cn1nnc(-c2cn(C)c3ccccc3c2=O)n1	189 to 192 °C
CCCCCC1(C#N)CCC(c2ccc(-c3ccc(CCC)cc3)cc2)CC1 (stereo not drawn)	75 °C
NCCN1CCC(Nc2nc3cccnc3n2Cc2ccccn2)CC1	151 °C
ON=C1Cc2ccccc2C=Cc2ccccc21	191 to 192 °C
CS(=O)(=O)NN(c1ccc([N+](=O)[O-])cc1N)S(=O)(=O)c1cccc(S(=O)(=O)F)c1	204 to 209 °C

Compound	melting point
C=C1C(O)C(CO)OC1n1cc(I)c(=O)[nH]c1=O (stereo not drawn)	169 to 172 °C
COC(=O)C1CSc2ccc(Cl)cc2C1=O (stereo not drawn)	64 to 67 °C
Nc1ccc(Sc2cccc3c2C(=O)c2cccc(Sc4ccc(N)cc4)c2C3=O)cc1	364 to 365 °C
Cc1csc2[nH]c(=O)n(Cc3ccc(Br)cc3F)c(=O)c12	296 to 298 °C
CCN1C(=O)CCCc2ccc(Nc3ncc(Cl)c(Nc4c(C)cccc4C(=O)NC)n3)cc21	210 to 212 °C
O=C1CC(C(F)(F)F)CC(=O)N1c1cc(O)c(Cl)cc1F	112 to 114 °C
CCC(=S)N1CCC[C@H]1C(=O)O	123 to 124 °C
COc1ccc2sc(C(N)=O)c(SC)c2c1	171 to 173 °C
Cc1cccc(-c2nc(-c3ccc(S(C)=O)cc3)sc2-c2ccnc(C)c2)c1 (stereo not drawn)	128 to 130 °C
O=C(Cc1ccc(OCc2ccccc2)cc1)Nc1c(C(=O)O)oc2cc(-c3ccc(Cl)cc3)ccc12	211 to 212 °C
Nc1ncnc2ncn([C@H]3C=C[C@@H](O)C3)c12 (racemic)	195 to 197 °C
CC(C)c1ccc(S(=O)(=O)N2CCCC2c2ccc(F)cc2)cc1 (racemic)	77 °C
Cn1c(C(F)(F)F)nn(-c2cc(O)c(C#N)cc2F)c1=O	208 °C
CCCn1cc2c(C3C(=O)Nc4ccc(C#N)cc43)nc(NCc3cccnc3)nc2n1 (stereo not drawn)	291 to 295 °C
Oc1ccc(CCc2cc(O)cc(O)c2)cc1	160 to 161 °C
Cc1cccc(-c2nc3ccc(Cl)cn3c2-c2ccnc(-c3ccc(CN4CCCC4)cc3)c2)n1	134 °C
CCSc1nccn1N1CCN(c2ccc(OC)cc2)CC1	112 °C
CCCc1[nH]c2ccc(OCc3ccc4ccccc4n3)cc2c1CC	91 °C
Cc1cc2nc3[nH]c4ccc(Br)cc4c3nc2cc1C	319 to 322 °C

Second part, the molecule after the results:

melting point	Compound
64 to 66 °C	CC(C)CCC1(c2ccccc2)CC(O)=C(Sc2ccccc2C(C)C)C(=O)O1 (stereo not drawn)
96 to 98 °C	CSc1ccc2cccc(CCNC(=O)C3CC3)c2c1
86 to 88 °C	CC(=O)OCc1ccc(Cl)cc1C(O)c1ccccc1 (stereo not drawn)
198 to 200 °C	O=C(O)CC1(C(=O)O)CCOc2ccc(C(=O)O)cc21 (stereo not drawn)
157 °C	CC(=O)Nc1ccc([N+](=O)[O-])cc1OCC(O)CN1C(=O)CCC1=O (stereo not drawn)
198 to 203 °C	CCOC(OCC)c1cc(=O)[nH]c(N)n1
113 to 115 °C	Cc1cc(C)n(C(=O)CCNS(=O)(=O)c2ccccc2)n1
79 to 80 °C	CCC(=O)c1ccc2cc(OC(C)C)ccc2c1
92 to 95 °C	CC(=O)NCCCC(=O)c1ccccc1
128 to 130 °C	Cc1ccc(S(=O)(=O)N(C)CC(=O)N[C@@H](Cc2ccccc2)C(=O)O)cc1 (Tos-[Sar]-Phe-OH)
187 °C	CCOC(=O)Cc1nn(CC(=O)Nc2ccccc2)c(=O)c2ccccc12
123 to 124 °C	COC(=O)c1ccc(OC)c(C=O)c1O
90 to 95 °C	COC(=O)CCCCCCCNC(=O)C(COS(C)(=O)=O)NS(=O)(=O)c1ccc(Cl)cc1 (racemic)
277 to 278 °C	COc1ccc(C(=O)Nc2c(C)c(C)c3c(c2C)C(c2ccc(C(C)C)cc2)C2(CCN(C)CC2)O3)cc1 (stereo not drawn)
99.1 to 101 °C	CCOC(=O)N1CCN(CCNc2ncnc3c2sc2nc(-c4ccco4)c4c(c23)CC(C)(C)CC4)CC1
185 to 187 °C	COC(=O)CCSCC(=O)c1ccc2[nH]c(=O)[nH]c2c1
156 to 159 °C	CO[C@@H](Cc1ccc(OCCc2nc(-c3ccc(-c4ccccc4)cc3)oc2C)c2ccccc12)C(=O)O
138 to 139 °C	C[C@@H](Sc1ccc(O)cc1)C(=O)O
97 to 98 °C	O=C(NCCCC[C@@H](C(=O)O)n1c2ccccc2c2ccccc21)c1ccc(C(=O)c2ccccc2)cc1
84 to 86 °C	CC(C)Oc1ccc(/C=C(\NC(=O)c2ccc(OCCC(F)(F)F)cc2)C(=O)NCCO)cc1

melting point	Compound
155 to 156 °C	CCOc1nc(NC(C)C)c2cscc2n1
261 to 263 °C	N#CCCNC(=O)c1n[nH]cc1NC(=O)c1cc(Cl)ccn1
69 to 70 °C	COC(=O)COc1ccc(I)cc1
57 to 60 °C	CCCCCCCCCCC[C@H](C[C@H](O)[C@H](CCCCCC)C(=O)O)OCc1ccccc1
68 to 71 °C	CCOC(=O)Cc1ccc2c(c1)C(=O)c1cc(Cl)ccc1CS2
99 to 100 °C	CC(C)[C@H](NC(=O)[C@H](CC(=O)OC(C)(C)C)NC(=O)CCCN)C(=O)OC(C)(C)C
91.5 to 93.5 °C	CN(C)C(=O)C(C)(C)CCCCC(=O)CCCCC(C)(C)C(=O)O
168 to 169 °C	COc1cc(F)nc(NC(=O)NS(=O)(=O)c2ccccc2OS(C)(=O)=O)n1
140 to 143 °C	CCOC(=O)c1nn(-c2c(Cl)cc(C(F)(F)F)cc2Cl)cc1O
174 °C	O=C(Nc1ccccc1Nc1ccccc1)N[C@@H](Cc1ccc(NC(=O)c2c(Cl)cccc2Cl)cc1)C(=O)O
220 to 221 °C	CCC(C)CNC(=O)c1ccc2cccc(Cc3ccc(C(=O)O)cc3OC)c2c1 (stereo not drawn)
68 to 70 °C	COC(=O)CCCCCCCCCNS(=O)(=O)c1ccc(Cl)cc1
207 to 209 °C	CC(C)(C)OC(=O)NC1COCCCC=CC2CC2(C(=O)NS(=O)(=O)C2CC2)NC(=O)C2CC(OC(=O)c3ccc(Oc4ccccc4)cc3)CN2C1=O (stereo not drawn)
29 to 30 °C	CCCCCC/C=C/[C@@H](O)[C@H](CO)N=[N+]=[N-]
270 to 272 °C	NCCc1ccc(CCC(=O)O)cc1
118 to 120 °C	COC(=O)c1ccc(Cc2cn(C(C)C)c3ccc(C=CCC(=O)N(C)C)cc23)c(OC)c1
207 to 209 °C	CC(=O)Nc1ccc(/C=C/C(=O)NCC(=O)N(C)c2ccc(Cl)c(CO)c2Cl)cn1
213 to 214 °C	CC1(C)CCC(C)(C)c2cc(C(C(=O)O)C(=O)Nc3ccc(C(=O)O)cc3)ccc21 (stereo not drawn)
159 to 161 °C	COC(=O)[C@H]1C[C@H](NC(=O)Oc2ccccc2)c2c(Cl)cc(Cl)cc2N1 (relative stereo)
